Here are results for three compounds from publication PMC7824787, “Design, Synthesis and In Vitro Investigation of Novel Basic Celastrol Carboxamides as Bio-Inspired Leishmanicidal Agents Endowed with Inhibitory Activity against Leishmania Hsp90” (Biomolecules, 2021).

The structures appear in SMILES notation. Where two headings read alike, the source gives them in different places.

One data set relates to L. tropica promastigotes. As to the kind of experiment: Antileishmanial activity on L. tropica promastigotes (MTT). Format: cell-based. As for the experimental part:
(§1) Promastigote stage of L. infantum (MHOM/TN/80/IPT1, kindly provided by Dr. M. Gramiccia and Dr. T. Di Muccio, ISS, Roma) and L. tropica (MHOM/SY/2012/ISS3130) were cultured in RPMI 1640 medium (EuroClone) supplemented with 15% heat-inactivated fetal calf serum (EuroClone, Milan, Italy), 20 mM HEPES, and 2 mM L-glutamine at 23 °C. The MTT (3-[4.5-dimethylthiazol-2-yl]-2.5-diphenyltetrazolium bromide) method was used to estimate the 50% inhibitory concentration (IC50), with some modifications. Compounds were dissolved in DMSO and then diluted with medium to achieve the required concentrations. Test compounds were placed in 96 wells round bottom microplates and seven serial dilutions made. Amphotericin B was used as the reference antileishmanial drug. Parasites were diluted in complete medium to 5 × 10^6 parasites/mL and 100 μL of the suspension was seeded into the plates and incubated at 23 °C for 72 h. Then 20 μL of MTT solution (5 mg/mL) was added into each well, after 3 h the plates were centrifuged, the supernatants discarded and the resulting pellets dissolved in 100 μL of lysing buffer consisting of 20% (w/v) of a solution of SDS (Sigma), 40% of N,N-dimethylformamide (Merck) in H2O. The absorbance of the obtained solutions was measured at a wavelength of 550 nm with a reference at 650 nm with a microplate spectrophotometer (Synergy 4-Biotek, Milan, Italy) and analyzed with the Gen5® software for data processing.
(§2) The results are expressed as IC50, the dose of compound that is necessary to inhibit cell growth by 50%; each IC50 value is the mean ± standard deviation of at least three separate experiments performed in duplicate.

The test system of the next data set is BMDM. Nature of the data set: Cytotoxicity on BMDM (MTT). Format: cell-based, mouse. As to conditions: Mus musculus, BMDM; 72 h, MTT; read-out: Healthy Cell Lines IC50, BMDM. As for the experimental part:
(§3) Cytotoxicity was evaluated on human microvascular endothelial cells (HMEC-1, provided by the Centers for Disease Control, Atlanta, GA, USA), on immortalized mouse C57Bl/6 bone marrow derived macrophages (BMDM) from wild type lineage (generated in the laboratories of Drs. Douglas Golenbock and Kate Fitzgerald, University of Massachusetts, Worcester, MA, USA) and on a human acute monocytic leukaemia cell line (THP-1).
(§4) HMEC-1 were maintained in MCDB 131 medium (Invitrogen, Milan, Italy) supplemented with 10% fetal calf serum (HyClone), 10 ng/mL of epidermal growth factor, 1 μg/mL of hydrocortisone, 2 mM glutamine and 20 mM HEPES buffer, at 37 °C in 5% CO2. BMDM were maintained in DMEM (Euroclone) medium supplemented with 10% fetal bovine serum (HyClone, Celbio, Milan, Italy), 2 mM glutamine, and 25 mM of HEPES buffer solution (Euroclone). THP-1 were maintained in RPMI supplemented with 10% heat-inactivated FCS, 50 µM 2-mercaptoethanol, 10 µM sodium pyruvate, 20 mM HEPES, and 2 mM glutamine. In order to achieve differentiation into macrophages, cells were treated with 10 ng/mL phorbol myristate acetate (PMA) for 72 h.
(§5) For the cytotoxicity assay, cells were seeded in 96 well flat bottom tissue culture clusters (Costar, New York, NY, USA) at the following concentrations: HMEC 10^5 cell/mL, BMDM at 10^6 cell/mL, THP1 at 5 × 10^5 cell/mL. After 24 h, cells were treated with serial dilutions of test compounds in a final volume of 200 µL/well. Cell proliferation was evaluated after 72 h using the MTT assay.
(§6) The absorbances were measured with a microplate spectrophotometer (Synergy 4-Biotek) at a test wavelength of 550 nm and a reference wavelength of 650 nm. The results are expressed as IC50 as the concentration inhibiting 50% of cell growth. Each IC50 value is the mean and standard deviation of at least three separate experiments performed in duplicate.

A further data set concerns HMEC-1. As to the kind of experiment: Cytotoxicity on HMEC-1 (MTT). The class given is cell-based, human. As to conditions: Homo sapiens, read-out: Healthy Cell Lines IC50, HMEC-1. As for the experimental part: as §3, §4, §5, §6
Data set [1] deals with L. infantum promastigotes. As to the kind of experiment: Antileishmanial activity on L. infantum promastigotes (MTT). The class given is cell-based. Here is the method: as §1, §2
Another data set relates to THP-1. As to the kind of experiment: Cytotoxicity on THP-1 (MTT). Format: cell-based, human. As to conditions: Homo sapiens, THP-1; PMA-differentiated, 72 h, MTT; read-out: Healthy Cell Lines IC50, THP-1. As for the experimental part: as §3, §4, §5, §6
For the next data set, the system named is L. infantum amastigotes. Nature of the data set: Antileishmanial activity on intramacrophage amastigotes of L. infantum. Format: cell-based, Leishmania infantum. Here is the method:
Cell monolayers were then washed and incubated in the presence of test compounds for 72 h. Slides were fixed with methanol and stained with Giemsa. The percentage of infected macrophages in treated and non-treated cells was determined by light microscopy.

In another data set the target is LbHsp90 (Leishmania braziliensis, UniProt A4HL70). As to the kind of experiment: In vitro inhibition of the ATPase activity of LbHsp90 (Malachite Green Phosphate Assay). Format: biochemical. As to conditions: 7 μM LbHsp90, 27 °C, 60 min. From the text: To evaluate in vitro the modulatory activity of CE, PR and CE caboxamides, a full-length recombinant Hsp90 from L. braziliensis (LbHsp90) was produced in E. coli BL21 DE3 harboring the pET28a_LbHsp90 coding for the C-terminal His-tagged target chaperone (genbank number: XP_001567804.1, full sequence is reported in Appendix B). Pratically, the plasmid pET28a_LbHsp90, kindly donated by professor J.C. Borges, was transformed in E. coli BL21 DE3 using the TransformAid Bacterial Transformation Kit (Thermo Fisher, Waltham, MA, USA). Subsequently, the obtained transformants were grown overnight in LB medium containing 30 μg mL^−1 kanamycin (LBkan30) and then inoculated in 1 L SB kan30 medium (Yeast extract 30 g L^−1, Tryptone 20 g L^−1, NaCl 10 g L^−1) at 37 °C and 220 rpm. When the OD600 reached 0.5–1, gene expression was induced by the addition of 2 mL of 1 M IPTG solution in water and the culture was shifted at 30 °C for 24 h. After cell harvesting by centrifugation (5000 rpm for 30 min), the cell pellet was resuspended in 20 mL of wash buffer (20 mM HEPES buffer, pH 7.0, 500 mM NaCl, 20 mM imidazole) and recombinant E. coli BL21DE3 cells were disrupted by ultrasonication. LbHsp90 was subsequently purified using a Nickel Sepharose 6 Fast Flow agarose resin (Ni-NTA) (GE Healthcare, Milan, Italy) as follows. Soluble protein fraction was separated from cell debris by centrifugation (10,000 rpm for 30min) after cell ultrasonication, and clear lysates were incubated with the Ni-NTA resin for 90 min at 4 °C under mild shaking and loaded onto a glass column (10 × 110 mm). The resin was then washed with 10mL of wash buffer and His-tagged LbHsp90 was eluted using a 3 step gradient (10 mL washing buffer containing 100, 200, and 300 mM imidazole, respectively) and dialyzed against 20 mM HEPES buffer (20 mM, pH 7.5), at 4 °C overnight. The protein content was measured using the Bio-Rad Protein Assay (Hercules, CA, USA) according to the Bradford method and the protein purity was verified by SDS-PAGE analysis (10% T, 2.6% C). It is worth noting that to avoid interferences with the assays described below, proteins were purified and conserved in HEPES buffer (20 mM, pH 7.5) in place of the standard PB-buffer. Reported data are the mean of two experiments run in duplicate.
Modulatory activity toward the ATPase cycle of LbHsp90 was determined using a Malachite Green Phosphate Assay Kit (Catalog Number MAK307, Sigma-Aldrich®, St. Louis, MO, USA). Analyses were run in a 96-well plate directly following the quantitative formation of a green complex between Malachite Green, molybdate, and free orthophosphate (Pi) produced by ATP hydrolysis catalyzed by the chaperone. Color formation from the reaction was measured on a plate reader at 620 nm. Briefly, the IC50 of CE and its derivatives were extrapolated from a set of dose-response curves obtained by calculating the amount of Pi produced by LbHsp90 in the presence of different compounds concentrations.
Reactions were run in HEPES buffer (20 mM, pH 7.5) containing 3 mM MgCl2 and 50 mM KCl in the presence of different compounds concentrations ([…]), LbHsp90 (7 μM) and ATP (25 mM) at 27 °C for 60 min. OD620 was measured 30 min after Malachite Green reactants addition.
LbHsp90 native activity was measured by conducting the reaction in the presence of just LbHsp90 and ATP and extrapolating the concentration of Pi obtained.
Three sets of control experiments, (1) ATP background hydrolysis, (2) compounds-related interferences and (3) protein-related background coloration, were run as follow: • (1) ATP (25 mM) incubated at 27 °C for 60 min • (2) Compounds (different concentrations) incubated with ATP (25 mM) at 27 °C for 60 min • (3) LbHsp90 (7 μM) at 27 °C for 60 min
The in vitro performances of CE, PR and the carboxamides 1–11 (Figure 4) as potential inhibitors of the Leishmania braziliensis Hsp90 were investigated using Sigma-Aldrich® Malachite Green Phosphate Assay Kit. […]

Setting [2] is: Leishmania tropica, 72 h, 23 °C, MTT, read-out: Leishmania Promastigotes IC50, L. tropica.
Setting [3] is: Leishmania infantum, 72 h, 23 °C, MTT, read-out: Leishmania Promastigotes IC50, L. infantum.

LbHsp90, sequence (A4HL70 entry or part of it): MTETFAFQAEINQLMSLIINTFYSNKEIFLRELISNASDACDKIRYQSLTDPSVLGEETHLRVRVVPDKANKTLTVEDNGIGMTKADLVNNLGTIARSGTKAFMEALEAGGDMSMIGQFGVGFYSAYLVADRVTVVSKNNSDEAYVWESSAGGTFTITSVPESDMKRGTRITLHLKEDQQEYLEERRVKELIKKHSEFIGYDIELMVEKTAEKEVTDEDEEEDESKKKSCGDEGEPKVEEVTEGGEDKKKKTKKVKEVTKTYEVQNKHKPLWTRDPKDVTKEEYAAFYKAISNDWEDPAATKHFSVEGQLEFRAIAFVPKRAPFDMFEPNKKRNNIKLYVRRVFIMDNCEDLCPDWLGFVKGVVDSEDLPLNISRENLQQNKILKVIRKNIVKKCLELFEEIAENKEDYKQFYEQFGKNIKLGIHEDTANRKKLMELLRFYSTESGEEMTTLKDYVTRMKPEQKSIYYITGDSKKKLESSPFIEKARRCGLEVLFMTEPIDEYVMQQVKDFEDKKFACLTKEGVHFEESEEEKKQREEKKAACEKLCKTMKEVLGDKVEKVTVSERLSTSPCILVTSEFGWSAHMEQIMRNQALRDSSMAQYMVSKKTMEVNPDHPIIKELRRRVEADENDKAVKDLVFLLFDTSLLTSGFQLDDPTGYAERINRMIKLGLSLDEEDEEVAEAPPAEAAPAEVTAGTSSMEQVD

As for `C[C@@H]1[C@H](O)[C@@H](C)/C=C/C=C/C=C/C=C/C=C/C=C/C=C/[C@H](O[C@@H]2O[C@H](C)[C@@H](O)[C@H](N)[C@@H]2O)C[C@@H]2O[C@](O)(C[C@@H](O)C[C@@H](O)[C@H](O)CC[C@@H](O)C[C@@H](O)CC(=O)O[C@H]1C)C[C@H](O)[C@H]2C(=O)O` [AMP, amphotericin B, reference compound], the IC50 was 170 ± 20 nM in the data set on L. tropica promastigotes (setting [2]); more than 20000 nM in the data set on BMDM; more than 20000 nM in the data set on HMEC-1 (HMEC-1, 72 h, MTT); 160 ± 50 nM in data set [1] (setting [3]); more than 20000 nM in the data set on THP-1; 180 ± 30 nM in the data set on L. infantum amastigotes (Leishmania infantum, infected THP-1 macrophages, 72 h). In the data set with L. infantum amastigotes (ratio IC50 on THP-1 cell line / IC50 toward L. infantum amastigotes), the “S.I. (selectivity index)” value is listed as more than 109.

Take `C=CCSSCCNC(=O)[C@]1(C)CC[C@]2(C)CC[C@]3(C)C4=CC=C5C(=CC(=O)C(O)=C5C)[C@]4(C)CC[C@@]3(C)[C@@H]2C1` [compound 10, (2R,4aS,6aS,12bR,14aS,14bR)-N-(2-(allyldisulfanyl)ethyl)-10-hydroxy-2,4a,6a,9,12b,14a-hexamethyl-11-oxo-1,2,3,4,4a,5,6,6a,11,12b,13,14,14a,14b-tetradecahydropicene-2-carboxamide]: the melting point lay within 173.7 to 175.1 °C. This compound also yielded an IC50 against LbHsp90 of more than 125000 nM. Moreover, the IC50 in the data set on L. tropica promastigotes (Leishmania tropica; 72 h, 23 °C, MTT; read-out: Leishmania Promastigotes IC50, L. tropica) is 340 ± 210 nM. Further, in the data set on BMDM, the IC50 was 2860 ± 170 nM. The IC50 in the data set on HMEC-1 (HMEC-1, 72 h) came to 170 ± 40 nM. In addition, the IC50 in data set [1] (Leishmania infantum; 72 h, 23 °C, MTT; read-out: Leishmania Promastigotes IC50, L. infantum) was found to be 460 ± 120 nM. Also, the IC50 with THP-1 was 930 ± 270 nM.

`CC1=C(O)C(=O)C=C2C1=CC=C1[C@@]2(C)CC[C@@]2(C)[C@@H]3C[C@](C)(C(=O)NCCC45CCCN4CCC5)CC[C@]3(C)CC[C@]12C` [compound 4, (2R,4aS,6aS,12bR,14aS,14bR)-N-(2-(hexahydro-1H-pyrrolizin-7a-yl)ethyl)-10-hydroxy-2,4a,6a,9,12b,14a-hexamethyl-11-oxo-1,2,3,4,4a,5,6,6a,11,12b,13,14,14a,14b-tetradecahydropicene-2-carboxamide] registered a melting point of 235.7 to 237 °C. At LbHsp90, this compound came in with an IC50 of 48000 ± 3000 nM. Moreover, the IC50 with L. tropica promastigotes (setting [2]) came out at 200 ± 40 nM. Besides, the IC50 with BMDM stood at 2590 ± 710 nM. Moreover, in the data set with HMEC-1 (HMEC-1, 72 h, MTT), the IC50 is 350 ± 160 nM. For the same compound, the IC50 in data set [1] (setting [3]) is 250 ± 80 nM. The IC50 in the data set on THP-1 stood at 1890 ± 430 nM.

For orientation: IC50 means the concentration that gives 50% inhibition. A word on the melting point: it is the temperature, or range, at which the solid turns liquid.
